Series [1] can be described thus: testing of topical pain relief. The format is in vivo. The source says:
A new route of administration for mannitol for the specific indication of pain is disclosed. The topical composition allows for transdermal delivery of mannitol. […] The ingredients, including mannitol, are typically classified as natural health products.
(§1) Therefore, an improved topical composition includes from 0.25% up to 20.0% of menthol, by weight.

Series [2] is described as follows: absorption of mannitol through skin. As to conditions: when menthol is included in the composition.
Source text: as §1

Series [3] addresses TRPV1 receptor (Homo sapiens, UniProt Q8NER1). Description: inventors' own studies on mechanism of topical pain relief. As to conditions: distinct from osmotic effects. The source says:
The TRPV1 receptor is present on sensory nerves in the skin and is implicated in neurogenic inflammation, acute pain and chronic pain.

The structures appear in SMILES notation.

Chain of TRPV1 receptor (Q8NER1 whole entry): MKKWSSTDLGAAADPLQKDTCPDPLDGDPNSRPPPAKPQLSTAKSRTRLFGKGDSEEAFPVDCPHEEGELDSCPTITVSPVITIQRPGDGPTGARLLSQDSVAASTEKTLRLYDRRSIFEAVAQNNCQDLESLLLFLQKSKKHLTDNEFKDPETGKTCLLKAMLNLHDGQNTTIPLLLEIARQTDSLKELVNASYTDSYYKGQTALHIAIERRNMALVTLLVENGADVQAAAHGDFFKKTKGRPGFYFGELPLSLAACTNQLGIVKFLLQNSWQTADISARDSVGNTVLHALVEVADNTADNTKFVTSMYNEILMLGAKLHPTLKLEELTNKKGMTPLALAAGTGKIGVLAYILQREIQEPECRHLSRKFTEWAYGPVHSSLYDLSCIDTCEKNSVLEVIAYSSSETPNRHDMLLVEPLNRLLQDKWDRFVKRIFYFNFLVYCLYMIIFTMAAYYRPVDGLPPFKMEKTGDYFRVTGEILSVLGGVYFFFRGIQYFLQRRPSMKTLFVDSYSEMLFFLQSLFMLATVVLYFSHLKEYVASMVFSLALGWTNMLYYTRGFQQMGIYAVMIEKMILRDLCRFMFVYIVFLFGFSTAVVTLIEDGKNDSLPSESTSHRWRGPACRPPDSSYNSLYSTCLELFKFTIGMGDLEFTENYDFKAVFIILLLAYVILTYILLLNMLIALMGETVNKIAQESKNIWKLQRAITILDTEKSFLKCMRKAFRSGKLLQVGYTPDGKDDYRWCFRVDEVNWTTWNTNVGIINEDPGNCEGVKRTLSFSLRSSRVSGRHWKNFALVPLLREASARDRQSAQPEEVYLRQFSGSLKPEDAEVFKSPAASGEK

Take `OC[C@@H](O)[C@@H](O)[C@H](O)[C@H](O)CO` [mannitol]: in series [1] (when menthol is included in the composition), the pain relief entry is “improved pain relief”. The absorption through skin result in series [2] is “much more effectively absorbed”. Moreover, in series [3], the “effect on TRPV1 receptor” value is recorded as “down-regulation”.
Consider `CC1CCC(C(C)C)C(O)C1` (stereo not shown) [menthol], for which the “effectiveness of menthol content in the topical composition” value in series [1] (1.25% menthol by weight) was “effective”.

Source of the values: patent US9744122B2, “Topical formulation for pain relief” (priority 2013, dated 2017).
